Assay results: US12612401B2, “Crystalline forms of an S1P receptor modulator” (Oppilan Pharma Limited, priority 2022, dated 2026)

Assays:
[1] = biological target: T1, human S1P1 (Homo sapiens, UniProt P21453); assay: GTPγS binding assay (scintillation proximity assay); assay type: biochemical; details: S1P1 membrane from CHO cells expressing full-length human S1P1; GTPγ35S, 60 minutes
T1 construct: CHO-Ki Gαqi5 cells expression full-length human S1P1; expressed in transfected cells; host or cells: CHO-K1 Gαqi5 cells (printed 'CHO-Ki Gαqi5'), membranes
T1 sequence (P21453 whole entry): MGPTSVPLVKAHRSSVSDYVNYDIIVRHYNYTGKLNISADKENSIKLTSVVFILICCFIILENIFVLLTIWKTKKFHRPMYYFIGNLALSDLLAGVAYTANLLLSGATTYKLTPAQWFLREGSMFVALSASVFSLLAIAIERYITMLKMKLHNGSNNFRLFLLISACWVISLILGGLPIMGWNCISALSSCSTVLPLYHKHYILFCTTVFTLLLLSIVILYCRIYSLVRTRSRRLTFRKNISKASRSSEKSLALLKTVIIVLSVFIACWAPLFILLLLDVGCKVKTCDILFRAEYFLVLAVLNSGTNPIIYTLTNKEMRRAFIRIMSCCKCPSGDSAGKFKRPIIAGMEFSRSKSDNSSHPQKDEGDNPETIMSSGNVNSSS
Description: S1P1 membrane is prepared from CHO-Ki Gαqi5 cells expression full-length human S1P1. Scintillation proximity assay (SPA) is performed by incubating membranes, GTPγ^35S, and compounds at various concentrations for 60 minutes. Wheat germ agglutinin-coated SPA beads are added and incubated for 60 minutes before centrifugation and scintillation counting. EC50 data for Compound 1 found to be <1 μM.

[2] = Thermodynamic stability relationship of anhydrates (heating; slurry competition); assay type: physicochemical; details: for XRPD result, slurry competition Form 6 and Form 1: five days
Description: As a result, slurry competition was performed for Form 6 and Form 1 in acetone and THF systems at 5° C., RT and 50° C. After stirring at desired temperature for five days, the solids were isolated and analyzed by XRPD.

[3] = Dynamic vapor sorption (DVS); assay type: physicochemical; details: 25° C.
Description: DVS studies were performed using a DVS Intrinsic (SMS, UK). 10 to 20 mg of compound was transferred into the DVS and the weight change recorded with respect to a varying atmospheric humidity at 25° C. using the following parameters: • Drying at 25° C. until dm/dt<±0.002%/min • Min time: 10 min, Max time: 180 min • Equilibrium: 60 min • Cycle: 0, 5, 10, 20, 30, 40, 50, 60, 70, 80, 90, 80, 70, 60, 50, 40, 30, 20, 10, 5, 0 • Characterize the sample after the DVS experiment by XRPD

[4] = Stability study of Form 1 on storage (XRPD and HPLC); assay type: physicochemical; details: 80° C. for one day; 25° C./60% RH and 40° C./75% RH for one week and one month
Description: Physicochemical stability was evaluated for Form 1 via storing samples under 80° C. for one day, 25° C./60% RH and 40° C./75% RH for one week and one month.

[5] = Critical water activity study between Form 1 and Form 7; assay type: physicochemical; details: for XRPD result after slurry: RT, overnight
Excerpt: Critical water activity between anhydrous From 1 and hydrous Form 7 was investigated via slurry in MeOH/H2O system with various water activities at room temperature. After stirring overnight, the solids were isolated and analyzed by XRPD.

[6] = Solubility evaluation of Form 1 and Form 2 in DCM/MeOH; assay type: physicochemical; details: for concentration dissolved in DCM/MeOH: room temperature or 50° C.
Description: The solubility of Form 1 and Form 2 was evaluated in the same vehicle. Form 1 or Form 2 was added into DCM/MeOH and stirred to dissolve at room temperature or 50° C. A certain amount of HPMC-AS was then added into solution at room temperature, if a clear solution was obtained. Form 2 dissolved in DCM/MeOH at a concentration of 13 mg/mL, while Form 1 dissolved in a lower concentration, 10 mg/mL.

[7] = Form 2 stability via slurry in acetone and methanol/water; assay type: physicochemical; details: solids isolated at 1 h, 3 h, 5 h, 29 h
Description: Form 2 stability was also evaluated via slurry in acetone and methanol/water at RT. Solids were isolated at 1 h, 3 h, 5 h and 29 h time points.

## O=C1CC[C@@H](Oc2cc(Cl)c(-c3noc(-c4cn5cc(C(F)(F)F)cc(Cl)c5n4)n3)cc2Cl)CN1 [Compound 1, (R)-5-(2,5-dichloro-4-(5-(8-chloro-6-(trifluoromethyl)imidazo[1,2-a]pyridin-2-yl)-1,2,4-oxadiazol-3-yl)phenoxy)piperidin-2-one]
[1]
  EC50: < 1000 nM

## O=C1CC[C@@H](Oc2cc(Cl)c(-c3noc(-c4cn5cc(C(F)(F)F)cc(Cl)c5n4)n3)cc2Cl)CN1 [Form 6, (R)-5-(2,5-dichloro-4-(5-(8-chloro-6-(trifluoromethyl)imidazo[1,2-a]pyridin-2-yl)-1,2,4-oxadiazol-3-yl)phenoxy)piperidin-2-one]
[2]; according to the Burger-Ramberger Rules
  thermodynamic relationship to Form 5: monotropically related to Form 5 and is thermodynamically more stable

## O=C1CC[C@@H](Oc2cc(Cl)c(-c3noc(-c4cn5cc(C(F)(F)F)cc(Cl)c5n4)n3)cc2Cl)CN1 [Form 1, (R)-5-(2,5-dichloro-4-(5-(8-chloro-6-(trifluoromethyl)imidazo[1,2-a]pyridin-2-yl)-1,2,4-oxadiazol-3-yl)phenoxy)piperidin-2-one]
[3]; DVS
  hygroscopicity: slightly hygroscopic
[3]; after DVS cycle 0-90-0% RH
  Post-DVS analysis by XRPD: no change
[3]; between 0-80% RH
  moisture uptake: 0.3%
[4]
  change in HPLC purity after storage (chemical stability): no substantial change in HPLC purity
  form change after storage (XRPD): no form change
[2]; THF, 5° C.
  XRPD result, slurry competition Form 6 and Form 1: Form 1
[2]; THF, 50° C.
  XRPD result, slurry competition Form 6 and Form 1: Form 1
[2]; THF, room temperature
  XRPD result, slurry competition Form 6 and Form 1: Form 1
[2]; acetone, 5° C.
  XRPD result, slurry competition Form 6 and Form 1: Form 1
[2]; acetone, 50° C.
  XRPD result, slurry competition Form 6 and Form 1: Form 1
[2]; acetone, room temperature
  XRPD result, slurry competition Form 6 and Form 1: Form 1
[5]; MeOH/H2O slurry, water activities 0.0-1.0, RT
  relative stability versus Form 7: more stable under selected conditions
[6]; DCM 1.633 g, MeOH 0.334 g, Form 1 0.0165 g, AcOH 0.0022 g, HPMC-AS 0.0549 g
  Result (dissolution on heating), Experiment E: Dissolved at 50 °C
[6]; DCM 1.633 g, MeOH 0.334 g, Form 1 0.0165 g, AcOH 0.0022 g, HPMC-AS 0.0549 g, after stirring for 64 h
  Result (clarity after stirring for 64 h), Experiment E: Clear at 25 °C after
[6]; DCM 1.633 g, MeOH 0.334 g, Form 1 0.02 g, AcOH 0.0022 g, HPMC-AS 0.0664 g
  Result (dissolution), Experiment C: Hazy at 50 °C
[6]; DCM 4.083 g, MeOH 0.834 g, Form 1 0.0414 g, HPMC-AS 0.1378 g
  Result (dissolution on heating), Experiment D: Dissolved at 50 °C
[6]; DCM 4.083 g, MeOH 0.834 g, Form 1 0.0414 g, HPMC-AS 0.1378 g, after stirring for 64 h
  Result (clarity after stirring for 64 h), Experiment D: Clear at 25 °C after
[6]; DCM 4.083 g, MeOH 0.835 g, Form 1 0.05 g, HPMC-AS 0.166 g
  Result (dissolution), Experiment B: Hazy at 50 °C
[6]
  concentration dissolved in DCM/MeOH: 10000 µg/mL

## O=C1CC[C@@H](Oc2cc(Cl)c(-c3noc(-c4cn5cc(C(F)(F)F)cc(Cl)c5n4)n3)cc2Cl)CN1 [Form 7, (R)-5-(2,5-dichloro-4-(5-(8-chloro-6-(trifluoromethyl)imidazo[1,2-a]pyridin-2-yl)-1,2,4-oxadiazol-3-yl)phenoxy)piperidin-2-one]
[5]; MeOH/H2O 0:1000, Aw 1.0
  XRPD result after slurry: Form 1
[5]; MeOH/H2O 219:781, Aw 0.9
  XRPD result after slurry: Form 1
[5]; MeOH/H2O 418:582, Aw 0.8
  XRPD result after slurry: Form 1
[5]; MeOH/H2O 573:427, Aw 0.7
  XRPD result after slurry: Form 1
[5]; MeOH/H2O 687:313, Aw 0.6
  XRPD result after slurry: Form 1
[5]; MeOH/H2O 775:225, Aw 0.5
  XRPD result after slurry: Form 1
[5]; MeOH/H2O 844:156, Aw 0.4
  XRPD result after slurry: Form 1
[5]; MeOH/H2O 893:107, Aw 0.3
  XRPD result after slurry: Form 1
[5]; MeOH/H2O 937:63, Aw 0.2
  XRPD result after slurry: Form 1
[5]; MeOH/H2O 1000:0, Aw 0.0
  XRPD result after slurry: Form 1
[5]; all water activities at RT, stirring overnight
  form conversion in MeOH/H2O slurry: converted to Form 1

## O=C1CC[C@@H](Oc2cc(Cl)c(-c3noc(-c4cn5cc(C(F)(F)F)cc(Cl)c5n4)n3)cc2Cl)CN1 [Form 2, (R)-5-(2,5-dichloro-4-(5-(8-chloro-6-(trifluoromethyl)imidazo[1,2-a]pyridin-2-yl)-1,2,4-oxadiazol-3-yl)phenoxy)piperidin-2-one]
[7]; slurry in acetone at RT
  XRPD analysis after slurry: Form 1 formation in both solvents within one hour
[7]; slurry in methanol/water at RT
  XRPD analysis after slurry: Form 1 formation in both solvents within one hour
[6]; DCM 3.679 g, MeOH 0.752 g, Form 2 0.05 g, HPMC-AS 0.150 g
  Result (dissolution), Experiment A: Clear at room
[6]; DCM/MeOH vehicle
  solubility compared with Form 1: better solubility than Form 1
[6]
  concentration dissolved in DCM/MeOH: 13000 µg/mL

## O=C1CC[C@@H](Oc2cc(Cl)c(-c3noc(-c4cn5cc(C(F)(F)F)cc(Cl)c5n4)n3)cc2Cl)CN1 [Form 5, (R)-5-(2,5-dichloro-4-(5-(8-chloro-6-(trifluoromethyl)imidazo[1,2-a]pyridin-2-yl)-1,2,4-oxadiazol-3-yl)phenoxy)piperidin-2-one]
[2]; heating, exothermic signal observed
  form change during heating: Form 6 formed at elevated temperature
